Experiments:
[1] = system: patients with symptomatic oHCM; parameters: species or system human; conditions: in vivo
Experimental: Patients enrolled in this trial were required to have an LVEF≥60% prior to randomization, as confirmed by the central echocardiography laboratory. […] Dose escalation was performed on an individualized basis only if the following criteria were met: both post-Valsalva LVOT-G≥30 mmHg and biplane LVEF≥55%. Importantly, in contrast to CY 6021, the lower limit of LVEF for dose escalations was increased from 50% to 55% to provide a safety margin from the threshold of LVEF (<50%) that would trigger dose reduction. If the LVEF was <50% at any time, the dose of aficamten was down-titrated, and if the LVEF is <40% at any time, aficamten was temporarily interrupted.
To evaluate the safety and tolerability profile of aficamten in patients with symptomatic oHCM, the following were recorded: (1) incidence of reported major adverse cardiac events (cardiovascular [CV] death, cardiac arrest, non-fatal stroke, non-fatal myocardial infarction, CV hospitalization); (2) incidence of new onset persistent atrial fibrillation; (3) incidence of appropriate implantable cardiac defibrillator (ICD) discharges and aborted sudden cardiac death; (4) incidence of left ventricular ejection fraction (LVEF)<50%; and (5) incidence of treatment emergent adverse events.

[2] = system: patients with symptomatic oHCM; assay: SEQUOIA-HCM substudy: post-exercise oxygen uptake recovery (VO2Rec); assay type: in vivo, human
Experimental: Patients were randomized 1:1 to aficamten or placebo for 24 weeks with a primary endpoint of pVO2. For this analysis, VO2Rec delay was measured as the time taken after exercise cessation for VO2 to decline by >0%, 12.5% (t12.5%), 25%, or 50% of pVO2. Change in t12.5% from baseline (BL) to week 24 (W24) was the primary endpoint. […]

[3] = system: patients with symptomatic oHCM; assay: SEQUOIA-HCM secondary analysis: global remodelling response across five domains; assay type: in vivo, human
Experimental: SEQUOIA-HCM recruited patients with symptomatic oHCM (New York Heart Association [NYHA]≥class 2, baseline pVO2 of ≤90% of predicted, respiratory exchange ratio [RER] of ≥1.05). Patients were randomized 1:1 to aficamten (5-20 mg daily) or placebo, and doses were adjusted during the first 6 weeks to achieve relief from obstruction (LVOT-G<30 mmHg) while maintaining left ventricular ejection fraction (LVEF) ≥50%, for 24 weeks. In this secondary analysis, remodelling response was assessed across five domains including: 1) left atrial volume index (LAVI) graded as normal (16-34 mL/m^2), mild (35-41 mL/m^2), moderate (42-48 mL/m^2), severe enlargement (>48 mL/m^2); 2) presence of left ventricular hypertrophy (LVH) with strain pattern on electrocardiogram (EKG) assessed by core lab, 3) Hyperdynamic (≥72) LVEF by core lab; 4)N-terminal brain natriuretic peptide (NT-proBNP) improvement of ≥50%, and; and 5) decrease of maximal wall thickness (MWT) ≥1.5 mm.

[4] = system: patients with symptomatic oHCM; assay: SEQUOIA-HCM: cardiac biomarkers NT-proBNP and hs-cTnI; assay type: in vivo, human
Text: A further exploratory objective of this trial was to evaluate the effect of aficamten on biomarker levels, as determined by changes from baseline values in NT-pro-BNP, hs-cardiac-TnI and other biomarkers through Week 24. Cardiac biomarkers. Aficamten treatment led to an immediate and significant reduction in both NT-proBNP and hs-cTnI, with substantial lowering of both biomarkers by week 2. […] Biomarker lowering persisted to week 24 when the relative reduction from baseline was-80% (95% CI-83%, −77%, p<0.001) in NT-proBNP and −43% (−49%, […], p<0.001) in hs-cTnI. […] Serum levels of NT-proBNP decreased from baseline to week 24 from 735 (604, 894) ng/L to 143 (120, 171) ng/L in patients receiving aficamten and remained unchanged from 710 (587, 859) ng/L to 717 (596, 863) ng/L in those receiving placebo, while hs-troponin decreased from 17.1 (14.1, 20.8) ng/L to 9.5 (8.0, 11.3) ng/L with aficamten and remained unchanged from 16.6 (13.3, 20.7) to 16.5 (13.7, 19.9) ng/L in placebo (P<0.001 for both comparisons compared to placebo). […] In contrast hs-cTnI reduction reflected 3% (−18%, 30%) of aficamten's effect on pVO2.

[5] = LSM treatment difference vs placebo
[6] = change from baseline to week 24

CCc1nc(-c2ccc3c(c2)CC[C@H]3NC(=O)c2cnn(C)c2)no1 [aficamten, (R)—N-(5-(5-ethyl-1,2,4-oxadiazol-3-yl)-2,3-dihydro-1H-inden-1-yl)-1-methyl-1H-pyrazole-4-carboxamide]
instances of per protocol down-titration [1]: no instances
Peak VO2 ([2]; Baseline): 18.4 mL/min/kg
VO2 recovery 12.5% ([2]; Baseline): 45 s
VO2 recovery 25% ([2]; Baseline): 66 s
VO2 recovery 50% ([2]; Baseline): 115 s
VO2 recovery delay ([2]; Baseline): 19 s
Peak VO2, Adjusted Δ [2, 5]: 1.7 mL/min/kg
VO2 recovery 12.5%, Adjusted Δ [2, 5]: -8 s
VO2 recovery 25%, Adjusted Δ [2, 5]: -7 s
VO2 recovery 50%, Adjusted Δ [2, 5]: -8 s
VO2 recovery delay, Adjusted Δ [2, 5]: -4 s
Peak VO2 ([2]; Week 24): 20.2 mL/min/kg
VO2 recovery 12.5% ([2]; Week 24): 38 s
VO2 recovery 25% ([2]; Week 24): 60 s
VO2 recovery 50% ([2]; Week 24): 107 s
VO2 recovery delay ([2]; Week 24): 15 s
improvement in pVO2 ([2]; aficamten group, W24): 9%
improvement in t12.5% (VO2Rec delay) ([2]; aficamten group, W24): 18%
improving t12.5% by ≥15 seconds, NNT ([2]; aficamten vs placebo): 4.8
improving t12.5% by ≥15 seconds, OR ([2]; aficamten vs placebo): 3.68
Peak VO2, Absolute Δ [2, 6]: 1.8 mL/min/kg
VO2 recovery 12.5%, Absolute Δ [2, 6]: -7 s
VO2 recovery 25%, Absolute Δ [2, 6]: -6 s
VO2 recovery 50%, Absolute Δ [2, 6]: -8 s
VO2 recovery delay, Absolute Δ [2, 6]: -4 s
patients with beneficial remodelling in at least one of five domains ([3]; 142 aficamten treated patients): 84%
patients with decrease by ≥50% in NT-proBNP ([3]; aficamten): 81.7%
patients with improvement in MWT (decrease ≥1.5 mm) ([3]; aficamten): 47.9%
patients with resolution of hyperdynamic LVEF ([3]; aficamten): 35.2%
reduction in prevalence of LVH with strain pattern on EKG, patients ([3]; aficamten): 19.0%
patients with improvement by one category in LAVI ([3]; among patients with abnormal LAVI (>34 mL/m^2) at baseline, 44/94): 46.8%
number needed to treat to achieve beneficial remodelling ([3]; vs placebo): 2.2
hs-cTnI relative reduction from baseline ([4]; Week 24): −43%
patients with 50% relative reduction in hs-troponin ([4]; aficamten group, week 24): 31%
patients with ≥50% reduction in NT-proBNP relative to baseline ([4]; aficamten group, week 24): 84%
hs-troponin level ([4]; aficamten, week 24, baseline 17.1 (14.1, 20.8)): 9.5 (8.0, 11.3) ng/L
serum level of NT-proBNP ([4]; aficamten, week 24, baseline 735 (604, 894)): 143 (120, 171) ng/L
NT-proBNP and hs-cTnI concentrations after cessation of aficamten ([4]; after the treatment period): returning to baseline values
NT-proBNP reduction ([4]; week 8): 79%
hs-cTnI reduction ([4]; week 8): 41%
